Laboratory results: paper PMC8233319, “Protein mimetic amyloid inhibitor potently abrogates cancer-associated mutant p53 aggregation and restores tumor suppressor function” (Nature Communications, 2021)
Values belong to the molecule of their own block, whether it stands above or below them.

Columns and labels:
[1] = molecular target: T1, p53 (mutant R248W DBD-derived peptide pR248W) (Homo sapiens, UniProt P04637, R248W); assay: intrinsic tryptophan fluorescence quenching titration (weak; no CETSA stabilization of R248W); format: binding
T1 construct: gene TP53

p53 (mutant R175H) = molecular target: T2, p53 (mutant R175H) (Homo sapiens, UniProt P04637, R175H); assay: CETSA in SK-BR-3 cells (Tm […] to […] °C at […]); format: cell-based
T2 construct: gene TP53; endogenous mutant p53 in SK-BR-3 cells

[2] = molecular target: T1, p53 (mutant R248W DBD-derived peptide pR248W); assay: intrinsic tryptophan fluorescence quenching titration (also HSQC NMR on R248W DBD and CETSA in MIA PaCa-2 cells); format: binding
[3] = molecular target: the molecule itself; assay: thioflavin T (ThT) amyloid aggregation kinetics; 25 uM peptide alone in PBS with 50 uM ThT, shaking, 37 °C, fluorescence every 5 min; self-assembly into amyloid

Kd [1]: 15.4 ± 0.8 µM
Molecule: COC(=O)c1ccc(NC(=O)c2ccc(NC(=O)c3ccc([N+](=O)[O-])c(OCC(=O)O)n3)c(OCc3ccccc3)n2)c(OCC(=O)O)n1 [ADH-1]

CETSA in SK-BR-3 cells (Tm 38.8 to 45.1 °C at 5 μM) (p53 (mutant R175H)): 45.1 ± 1.2 °C
Kd [2]: 366 ± 13 nM
Molecule: CCCCOc1nc(C(=O)Nc2ccc(C(=O)Nc3ccc(C(=O)OC)nc3OCCCN)nc2OCCCN)ccc1[N+](=O)[O-] [ADH-6]

B1: pWT, WT p53 DBD-derived peptide (residues 248-273) (peptide, UniProt P04637 248-273, looked up)
peptide: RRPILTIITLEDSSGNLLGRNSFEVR
notes: source: synthetic peptide (Selleck Chemicals, Fmoc; purified in house by reverse-phase HPLC)
binding result [3]: binds
